Data on nine compounds can be found in patent publication US20260183274A1, “PDK1 REGULATORY COMPOUND AND COMPOSITION CONTAINING THE SAME” (PROVIBIO CO., LTD., priority 2024, published 2026).

For this assay, the system named is T cells isolated from mouse spleens. The experiment in a line: T cell proliferation inhibition (CFSE flow cytometry, anti-CD3/anti-CD28 stimulation). It counts as cell-based. The note with it: mouse spleen T cells, 3 days; for inhibition at 0.01 µM / inhibition at 0.1 µM / inhibition at 1 µM / inhibition at 10 µM / inhibition at 30 µM / inhibition at 50 µM: Mus musculus, T-cell, 72 h, read-out: Proliferation inhibition rate (%). The method, boiled down: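 Splenic T cells from 7-week-old C57BL/6 mice were MACS-isolated, CFSE-labelled, seeded at 2×10^5 cells/well and activated with anti-CD3/anti-CD28 (0.5 μg/mL each). Compound at 10 nM–50 μM (six levels, triplicate) was present for 3 days at 37 °C before flow cytometric readout of proliferation inhibition rate.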
On the technique in general: In flow cytometry, cells or beads pass a laser one at a time.

Turning to `C[C@@H]1CN(CCCCCCCCCCCCNC(=O)c2cccnc2N)C[C@H](C)O1` [Compound 110, 2-amino-N-(12-((2S,6R)-2,6-dimethylmorpholino)dodecyl)nicotinamide], the inhibition at 0.01 µM (compound 10 nM) is -36.7%. In addition, for the setting “compound 100 nM”, the inhibition at 0.1 µM amounted to 100%. Besides, the inhibition at 1 µM (compound 1 μM) is 100%. For the setting “compound 10 μM”, the inhibition at 10 µM was determined as 100%. Also, the inhibition at 30 µM (compound 30 μM) was 100%. Further, the inhibition at 50 µM (compound 50 μM) worked out at 100%.

Consider `Nc1ncccc1C(=O)NCCCN1CCOCC1` [Compound 78, 2-amino-N-(3-morpholin-4-yl-propyl)nicotinamide], for which the inhibition at 0.01 µM (compound 10 nM) is -7.14%. Moreover, the inhibition at 0.1 µM (compound 100 nM) was -4.19%. The inhibition at 1 µM (compound 1 μM) is -3.73%. Further, for the setting “compound 10 μM”, the inhibition at 10 µM worked out at 0.68%. Further, the inhibition at 30 µM (compound 30 μM) was determined as 4.51%. Also, the inhibition at 50 µM (compound 50 μM) is 8.76%.

`N#CCCCCCCCCCCNC(=O)c1cccnc1N` [Compound 79, 2-amino-N-(10-cyano-decyl)-nicotinamide]: the inhibition at 0.01 µM (compound 10 nM) was -2.19%. For the same compound, the inhibition at 0.1 µM (compound 100 nM) amounted to 1.23%. For the setting “compound 1 μM”, the inhibition at 1 µM is 7.12%. Where the note is “compound 10 μM”, the inhibition at 10 µM amounted to 11%. Besides, the inhibition at 30 µM (compound 30 μM) came to 27.9%. For the same compound, the inhibition at 50 µM (compound 50 μM) is 34.7%.

As to `CN1CCN(CCCCCCCCCCCCNC(=O)c2ccc(C(F)(F)F)cc2N)CC1` [Compound 213, 2-Amino-N-(12-(4-methylpiperazin-1-yl)dodecyl)-4-(trifluoromethyl)benzamide], the inhibition at 0.01 µM (compound 10 nM) was -0.14%. For the same compound, the inhibition at 0.1 µM (compound 100 nM) is 6.37%. Moreover, the inhibition at 1 µM (compound 1 μM) stood at 8.54%. Besides, the inhibition at 10 µM (compound 10 μM) is 100%. Also, the inhibition at 30 µM (compound 30 μM) was determined as 100%. The inhibition at 50 µM (compound 50 μM) worked out at 100%.

`CN1CCN(CCCCCCCCCCCCNC(=O)c2cccnc2Cl)CC1` [Compound 118, 2-chloro-N-(12-(4-methylpiperazin-1-yl)dodecyl)nicotinamide]: the inhibition at 0.01 µM (compound 10 nM) stood at 4.24%. The inhibition at 0.1 µM (compound 100 nM) worked out at 4.82%. The inhibition at 1 µM (compound 1 μM) is 12.6%. Also, where the note is “compound 10 μM”, the inhibition at 10 µM amounted to 34.5%. The inhibition at 30 µM (compound 30 μM) was 88.6%. Moreover, the inhibition at 50 µM (compound 50 μM) amounted to 100%.

In the case of `Nc1ncccc1C(=O)NCCCCCCCCCCCCN1CCOC1=O` [Compound 127, 2-amino-N-(12-(2-oxooxazolidin-3-yl)dodecyl) nicotinamide], the “Proliferation inhibition rate (%)” value (compound 10 nM) was −2.24%; the “Proliferation inhibition rate (%)” value (compound 100 nM) is recorded as 10.30%; the “Proliferation inhibition rate (%)” value (compound 1 μM) amounted to 15.07%; the “Proliferation inhibition rate (%)” value (compound 10 μM) is on record as 100.00%; the “Proliferation inhibition rate (%)” value (compound 30 μM) is given as 100.00%; the “Proliferation inhibition rate (%)” value (compound 50 μM) is listed as 100.00%.

With `COC(=O)C1CCN(CCCCCCCCCCCCNC(=O)c2cccnc2N)CC1` [Compound 93, methyl 1-(12-(2-aminonicotinamido)dodecyl)piperidine-4-carboxylate], under “compound 10 nM”, the inhibition at 0.01 µM was -12.9%. Moreover, the inhibition at 0.1 µM (compound 100 nM) was 100%. The inhibition at 1 µM (compound 1 μM) came out at 100%. Under “compound 10 μM”, the inhibition at 10 µM turned out to be 100%. The inhibition at 30 µM (compound 30 μM) turned out to be 100%. Also, the inhibition at 50 µM (compound 50 μM) was 100%.

For the compound `O=C(NCCCCCCCCCCCCF)c1ccncc1Nc1cccc(C(F)(F)F)c1` [Compound 59, N-(12-fluoro-dodecyl)-3-(3-trifluoromethyl-phenylamino)-isonicotinamide], the inhibition at 0.01 µM (compound 10 nM) came out at 0%. Also, the inhibition at 0.1 µM (compound 100 nM) was determined as 0%. The inhibition at 1 µM (compound 1 μM) was determined as 0%. The inhibition at 10 µM (compound 10 μM) was -8.32%. For the same compound, for the setting “compound 30 μM”, the inhibition at 30 µM was found to be 78.4%. The inhibition at 50 µM (compound 50 μM) was found to be 99.8%.

In the case of `O=C(NCCCCCCCCCCCCF)c1cccnc1Br` [Compound 58, 2-Bromo-N-(12-fluoro-dodecyl)-nicotinamide], under “compound 10 nM”, the inhibition at 0.01 µM was -4.38%. In addition, the inhibition at 0.1 µM (compound 100 nM) was found to be 1.78%. Further, the inhibition at 1 µM (compound 1 μM) turned out to be 1.92%. Under “compound 10 μM”, the inhibition at 10 µM worked out at 20%. The inhibition at 30 µM (compound 30 μM) worked out at 78.9%. For the same compound, the inhibition at 50 µM (compound 50 μM) was 95.8%.
